Target: T1, AXL (human catalytic domain) (Homo sapiens, UniProt P30530)
T1 construct: purchased Upstate Ltd. 14-512
T1 sequence (P30530 473-894): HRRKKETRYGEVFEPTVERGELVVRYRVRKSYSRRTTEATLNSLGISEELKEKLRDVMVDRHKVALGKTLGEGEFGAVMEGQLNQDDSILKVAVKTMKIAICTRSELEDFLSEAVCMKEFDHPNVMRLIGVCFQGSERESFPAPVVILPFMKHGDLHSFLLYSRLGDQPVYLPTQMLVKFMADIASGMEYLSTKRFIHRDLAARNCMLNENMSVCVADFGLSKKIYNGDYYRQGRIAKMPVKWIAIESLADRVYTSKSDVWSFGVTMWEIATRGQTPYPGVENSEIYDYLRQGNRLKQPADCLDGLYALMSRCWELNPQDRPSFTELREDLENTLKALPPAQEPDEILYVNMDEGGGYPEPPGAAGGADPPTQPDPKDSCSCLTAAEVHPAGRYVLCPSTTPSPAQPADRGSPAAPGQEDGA
Assay: AXL (human catalytic domain) Enzyme Activity Assay (IMAP fluorescence polarisation)
Type: biochemical
Conditions: further data set (WW-001 through WW-169, XX-001 through XX-469, YY-001 through YY-016, ZZ-001 through ZZ-003); 150 μM ATP
How it was run: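 Recombinant human AXL isoform 1 (aa473-894; final 15 nM) phosphorylated 100 nM fluorescein-CSK-tide with 150 μM ATP (KM) in HEPES pH 7.0/MgCl2/DTT buffer for 60 min at room temperature. IMAP fluorescence polarisation read after overnight binding; IC50 from 10-point 4-parameter logistic fits.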

Row | IC50 [µM] | SMILES
1 | 0.1 to 1 | c1cc(OCC2CCCO2)cc(-c2cccc3nc(Nc4ccc(OCCN5CCCC5)cc4)nn23)c1 (centres unmarked) [XX-175, [4-(2-Pyrrolidin-1-yl-ethoxy)-phenyl]-{5-[3-(tetrahydro-furan-2-ylmethoxy)-phenyl]-[1,2,4]triazolo[1,5-a]pyridin-2-yl}-amine]
2 | 0.1 to 1 | O=C(Nc1cccc(Cl)c1)Nc1cccc(-c2cccc3nc(Nc4ccc(OCCN5CCCC5)cc4)nn23)c1 [XX-176]
3 | 0.1 to 1 | O=C(Nc1cccc(-c2cccc3nc(Nc4ccc(OCCN5CCCC5)cc4)nn23)c1)c1cccc(Cl)c1 [XX-177]
4 | 0.1 to 1 | O=C(Nc1cccc(-c2cccc3nc(Nc4ccc(OCCN5CCCC5)cc4)nn23)c1)C1CC1 [XX-178]
5 | 0.1 to 1 | O=C(Nc1cccc(-c2cccc3nc(Nc4ccc(OCCN5CCCC5)cc4)nn23)c1)c1ccccc1 [XX-179]
6 | 0.1 to 1 | O=C(Nc1cccc(-c2cccc3nc(Nc4ccc(OCCN5CCCC5)cc4)nn23)c1)c1cccnc1 [XX-180]
7 | 0.1 to 1 | O=C(Nc1cccc(-c2cccc3nc(Nc4ccc(OCCN5CCCC5)cc4)nn23)c1)c1ccco1 [XX-181]
8 | 0.1 to 1 | O=C(Nc1cccc(-c2cccc3nc(Nc4ccc(OCCN5CCCC5)cc4)nn23)c1)c1ccc2nonc2c1 [XX-182]
9 | 1 to 10 | NC(=O)c1cccc(-c2cccc3nc(Nc4ccc(OCCN5CCCC5)cc4)nn23)c1 [XX-183]
10 | 0.1 to 1 | Nc1ccc(-c2cccc3nc(Nc4ccc(OCCN5CCCC5)cc4)nn23)cc1 [XX-184]
11 | 0.1 to 1 | c1cc(-c2ccc(-c3ccoc3)cc2)n2nc(Nc3ccc(OCCN4CCCC4)cc3)nc2c1 [XX-185]
12 | 0.1 to 1 | c1cc(-c2ccc(-c3ccsc3)cc2)n2nc(Nc3ccc(OCCN4CCCC4)cc3)nc2c1 [XX-186]
13 | 0.1 to 1 | c1cc(-c2ccc(-c3cn[nH]c3)cc2)n2nc(Nc3ccc(OCCN4CCCC4)cc3)nc2c1 [XX-187]
14 | 0.1 to 1 | c1coc(-c2ccc(-c3cccc4nc(Nc5ccc(OCCN6CCCC6)cc5)nn34)cc2)c1 [XX-188]
15 | 0.1 to 1 | Cn1nccc1-c1ccc(-c2cccc3nc(Nc4ccc(OCCN5CCCC5)cc4)nn23)cc1 [XX-189]
16 | 0.1 to 1 | Cc1noc(C)c1-c1ccc(-c2cccc3nc(Nc4ccc(OCCN5CCCC5)cc4)nn23)cc1 [XX-190]
17 | 0.1 to 1 | CCn1cc(-c2ccc(-c3cccc4nc(Nc5ccc(OCCN6CCCC6)cc5)nn34)cc2)cn1 [XX-191]
18 | 0.1 to 1 | O=C(Nc1cccc(-c2cccc3nc(Nc4ccc(OCCN5CCCC5)cc4)nn23)c1)c1ccno1 [XX-192]
19 | 0.1 to 1 | c1ccc(Cn2cc(-c3cccc4nc(Nc5ccc(OCCN6CCCC6)cc5)nn34)cn2)cc1 [XX-193, [5-(1-Benzyl-1H-pyrazol-4-yl)-[1,2,4]triazolo[1,5-a]pyridin-2-yl]-[4-(2-pyrrolidin-1-yl-ethoxy)-phenyl]-amine]

Row | IC50 [µM] | SMILES
20 | 1 to 10 | COc1ccccc1-c1cccc2nc(Nc3ccc(OCCN4CCCC4)cc3)nn12 [XX-194]
21 | 1 to 10 | FC(F)(F)c1ccccc1-c1cccc2nc(Nc3ccc(OCCN4CCCC4)cc3)nn12 [XX-195]
22 | 1 to 10 | Oc1cc(F)ccc1-c1cccc2nc(Nc3ccc(OCCN4CCCC4)cc3)nn12 [XX-196]
23 | 1 to 10 | COc1ncc(-c2cccc3nc(Nc4ccc(OCCN5CCCC5)cc4)nn23)cn1 [XX-197]
24 | 0.1 to 1 | CN(C)c1ccc(-c2cccc3nc(Nc4ccc(OCCN5CCCC5)cc4)nn23)cn1 [XX-198]
25 | 0.1 to 1 | COC(=O)c1ccc(-c2cccc3nc(Nc4ccc(OCCN5CCCC5)cc4)nn23)cc1 [XX-199]
26 | 1 to 10 | COc1ncccc1-c1cccc2nc(Nc3ccc(OCCN4CCCC4)cc3)nn12 [XX-200]
27 | 0.1 to 1 | c1cc(-c2ccsc2)n2nc(Nc3ccc(OCCN4CCCC4)cc3)nc2c1 [XX-201]
28 | 0.1 to 1 | c1cc(-c2cn[nH]c2)n2nc(Nc3ccc(OCCN4CCCC4)cc3)nc2c1 [XX-202, [5-(1H-Pyrazol-4-yl)-[1,2,4]triazolo[1,5-a]pyridin-2-yl]-[4-(2-pyrrolidin-1-yl-ethoxy)-phenyl]-amine]
29 | 0.1 to 1 | c1coc(-c2cccc3nc(Nc4ccc(OCCN5CCCC5)cc4)nn23)c1 [XX-203]
30 | 1 to 10 | Cc1ccc(-c2cccc3nc(Nc4ccc(OCCN5CCCC5)cc4)nn23)cn1 [XX-204]
31 | 0.1 to 1 | CC(=O)Nc1ccc(-c2cccc3nc(Nc4ccc(OCCN5CCCC5)cc4)nn23)cc1 [XX-205]
32 | 0.1 to 1 | CN(C)c1ccc(-c2cccc3nc(Nc4ccc(OCCN5CCCC5)cc4)nn23)cc1 [XX-206]
33 | 0.1 to 1 | COc1c(C)cc(-c2cccc3nc(Nc4ccc(OCCN5CCCC5)cc4)nn23)cc1C [XX-207]
34 | 0.1 to 1 | c1cc(-c2ccc3nonc3c2)n2nc(Nc3ccc(OCCN4CCCC4)cc3)nc2c1 [XX-208]
35 | 0.1 to 1 | c1cc(-c2ccc3c(c2)OCCCO3)n2nc(Nc3ccc(OCCN4CCCC4)cc3)nc2c1 [XX-209]
36 | 0.1 to 1 | Clc1cccc(-c2cccc3nc(Nc4ccc(OCCN5CCCC5)cc4)nn23)c1 [XX-210]
37 | ≤ 0.1 | Clc1ccc(-c2cccc3nc(Nc4ccc(OCCN5CCCC5)cc4)nn23)cc1 [XX-211]

The next lines start with the compound.

Row | SMILES | IC50 [µM]
38 | NCCNS(=O)(=O)c1ccc(Nc2nc3cccc(-c4ccc5c(c4)OCCO5)n3n2)cc1 [XX-144] | 0.1 to 1
39 | O=S(=O)(c1ccc(Nc2nc3cccc(-c4ccc5c(c4)OCCO5)n3n2)cc1)N1CCNCC1 [XX-145] | 0.1 to 1
40 | c1cc(-c2ccc(OCC3CCCO3)cc2)n2nc(Nc3ccc(OCCN4CCCC4)cc3)nc2c1 (centres unmarked) [XX-146] | 0.1 to 1
41 | CCN(CC)CCOc1cccc(Nc2nc3cccc(-c4ccc(N(C)C)c(C)c4)n3n2)c1 [XX-147] | 0.1 to 1
42 | C#CCOc1ccc(-c2cccc3nc(Nc4ccc(OCCN5CCCC5)cc4)nn23)cc1 [XX-148] | 0.1 to 1
43 | Cn1cc(-c2ccc(-c3cccc4nc(Nc5ccc(OCCN6CCCC6)cc5)nn34)cc2)cn1 [XX-149] | 0.1 to 1
44 | COc1cccc(-c2cccc3nc(Nc4ccc(OCCN5CCCC5)cc4)nn23)c1 [XX-150] | 1 to 10
45 | Oc1ccc(-c2cccc3nc(Nc4ccc(OCCN5CCCC5)cc4)nn23)cc1 [XX-151] | 0.1 to 1
46 | c1cc(NC2CCCC2)n2nc(Nc3ccc(OCCN4CCCC4)cc3)nc2c1 [XX-152, N*5*-Cyclopentyl-N*2*-[4-(2-pyrrolidin-1-yl-ethoxy)-phenyl]-[1,2,4]triazolo[1,5-a]pyridine-2,5-diamine] | 1 to 10
47 | CN(C(=O)CN1CCCC1)c1ccc(Nc2nc3cccc(-c4ccc5c(c4)OCCO5)n3n2)cc1 [XX-153] | ≤ 0.1
48 | CN(CCN1CCCC1)c1ccc(Nc2nc3cccc(-c4ccc5c(c4)OCCO5)n3n2)cc1 [XX-154] | ≤ 0.1
49 | C[C@H](CN(C)C)Oc1ccc(Nc2nc3cccc(-c4ccc5c(c4)OCCO5)n3n2)cc1 [XX-155] | 0.1 to 1
50 | CC(C)(C)OC(=O)Nc1cccc(-c2cccc3nc(Nc4ccc(OCCN5CCCC5)cc4)nn23)c1 [XX-156] | 1 to 10
51 | F[C@H]1CCN(CCOc2ccc(Nc3nc4cccc(-c5ccc6c(c5)OCCO6)n4n3)cc2)C1 [XX-157] | 0.1 to 1
52 | FC1(F)CCN(CCOc2ccc(Nc3nc4cccc(-c5ccc6c(c5)OCCO6)n4n3)cc2)C1 [XX-158] | 1 to 10
53 | c1ccc(-c2cccc3nc(Nc4ccc(OCCN5CCCC5)cc4)nn23)cc1 [XX-159] | 0.1 to 1

Row | SMILES | IC50 [µM]
54 | O=C(CSc1ccc(Nc2nc3cccc(-c4ccc5c(c4)OCCO5)n3n2)cc1)N1CCCC1 [XX-160] | 1 to 10
55 | CC(Sc1ccc(Nc2nc3cccc(-c4ccc5c(c4)OCCO5)n3n2)cc1)C(N)=O (centres unmarked) [XX-161] | 0.1 to 1
56 | CCN(CC)CCOc1ccc(Nc2nc3cccc(-c4ccc5c(c4)OCCO5)n3n2)cn1 [XX-162] | ≤ 0.1
57 | CCN(CC)CCOc1cc(Nc2nc3cccc(-c4ccc5c(c4)OCCO5)n3n2)ccn1 [XX-163] | ≤ 0.1
58 | c1ccc(-c2cccc(-c3cccc4nc(Nc5ccc(OCCN6CCCC6)cc5)nn34)c2)cc1 [XX-164, (5-Biphenyl-3-yl-[1,2,4]triazolo[1,5-a]pyridin-2-yl)-[4-(2-pyrrolidin-1-yl-ethoxy)-phenyl]-amine] | 0.1 to 1
59 | c1cc(-c2ccoc2)cc(-c2cccc3nc(Nc4ccc(OCCN5CCCC5)cc4)nn23)c1 [XX-165] | 0.1 to 1
60 | c1cc(-c2ccsc2)cc(-c2cccc3nc(Nc4ccc(OCCN5CCCC5)cc4)nn23)c1 [XX-166] | 0.1 to 1
61 | c1cc(-c2cn[nH]c2)cc(-c2cccc3nc(Nc4ccc(OCCN5CCCC5)cc4)nn23)c1 [XX-167] | ≤ 0.1
62 | c1cc(-c2ccco2)cc(-c2cccc3nc(Nc4ccc(OCCN5CCCC5)cc4)nn23)c1 [XX-168] | 0.1 to 1
63 | Cn1nccc1-c1cccc(-c2cccc3nc(Nc4ccc(OCCN5CCCC5)cc4)nn23)c1 [XX-169] | 0.1 to 1
64 | Cc1nn(C)c(C)c1-c1cccc(-c2cccc3nc(Nc4ccc(OCCN5CCCC5)cc4)nn23)c1 [XX-170] | 0.1 to 1
65 | Cn1cc(-c2cccc(-c3cccc4nc(Nc5ccc(OCCN6CCCC6)cc5)nn34)c2)cn1 [XX-171] | 0.1 to 1
66 | CCn1cc(-c2cccc(-c3cccc4nc(Nc5ccc(OCCN6CCCC6)cc5)nn34)c2)cn1 [XX-172] | 0.1 to 1
67 | CCN(CC)CCNS(=O)(=O)c1ccc(Nc2nc3cccc(-c4ccc5c(c4)OCCO5)n3n2)cc1 [XX-173] | 0.1 to 1
68 | O=C(Nc1ccccc1)Nc1cccc(-c2cccc3nc(Nc4ccc(OCCN5CCCC5)cc4)nn23)c1 [XX-174, 1-Phenyl-3-(3-{2-[4-(2-pyrrolidin-1-yl-ethoxy)-phenylamino]-[1,2,4]triazolo[1,5-a]pyridin-5-yl}-phenyl)-urea] | 0.1 to 1

From patent publication US8431596B2 (Cancer Research Technology Limited, priority 2007, dated 2013)
